According to paper PMC7041945, “Misfolded proteins bind and activate death receptor 5 to trigger apoptosis during unresolved endoplasmic reticulum stress” (eLife, 2020):

Columns and labels:
[1] = test system: GFP (340+341); test: qPCR of GFP transcript (expression of GFP-tagged construct); format: cell-based; conditions: 24 hr, Rep 2
[2] = test system: caspase 8 in HCT116 lysates; test: Caspase 8 activity (caspase glo 8) of cell lysates / IP inputs; format: cell-based, Homo sapiens; conditions: for Caspase 8 activity, fold change relative to GFP: AVG (n = 3 tech reps); for AVG fold change relative to GFP: average over lysate dilutions
Experimental: Cells harvested from a 6-well plate were resuspended in 100 μl of lysis buffer (30 mM HEPES pH 7.2, 150 mM NaCl, 1% Triton X-100) and lysed via needle shearing (25G, 10 passes) followed by a 30 min incubation on ice. Supernatant was collected after centrifuging at 1000xg for 5 min. For the caspase activity assay, 10 μl of supernatant diluted with lysis buffer (1:25, 1:50, 1:100 to stay within linear range of luminescence measurements) was incubated with 10 μl of the luminogenic caspase glo 8 substrate (Promega #PRG8200) in a 384-white walled plate (Corning 3574) for 45 min at RT before measuring luminescence on a Spectramax-M5 plate reader.

[3] = test system: HCT116 cells; test: Annexin V (and SytoxBlue) flow cytometry for apoptosis; format: cell-based, Homo sapiens; conditions: for Annexin V +, Sytox Blue + cells / Annexin V +, Sytox Blue - cells / Annexin V -, Sytox Blue - cells: transfected 24 hr
Experimental: Cells seeded in a 6-well plate were transfected with the specified plasmid for 24 hr and harvested via trypsinization in complete media to allow a 30 min recovery at 37°C. The samples were then centrifuged at 500xg for 5 min and resuspended In 150 μl of a 1:20 dilution of Annexin V-AlexaFluor 647 conjugate (Thermo Scientific #A23204). Samples were transferred to a 96-well U-bottom plate and incubated in the dark for 15 min at RT. The distribution of apoptotic cells was determined by flow cytometry on a BD LSR II.

[4] = test system: GAPDH; test: qPCR of GAPDH (reference transcript); format: cell-based; conditions: 24 hr, Rep 2
[5] = relative to empty traffo, mean of 3 replicates
[6] = relative to empty traffo, replicate 1
[7] = relative to empty traffo, replicate 2
[8] = relative to empty traffo, replicate 3
[9] = empty + Tg, siRNA non-targeting, stain AnnexinV-647, 2018-06-27
[10] = siRNA scrambled, 2017-01-17 Replicate
[11] = siRNA scrambled, 2018-06-21 Rep 1
[12] = siRNA scrambled, 2018-06-21 Rep 2
[13] = siRNA scrambled, mean of 3 replicates

C/C=C(/C)C(=O)O[C@H]1C(C)=C2[C@H]([C@@H]1OC(=O)CCCCCCC)[C@@](C)(OC(C)=O)C[C@H](OC(=O)CCC)[C@@]1(O)[C@H]2OC(=O)[C@@]1(C)O [thapsigargin, reference compound]
avg. fold induction GFP (340+341) [1, 5]: 0.3377 | fold induction GFP (340+341) [1, 6]: 0.335 | fold induction GFP (340+341) [1, 7]: 0.3372 | fold induction GFP (340+341) [1, 8]: 0.341 | 2^-(deltaCq) GFP (340+341) ([1]; replicate 1): 5.66e-5 | Cq GFP (340+341) ([1]; replicate 1): 32.8608 | Cq(sample) - avg Cq(GAPDH), GFP (340+341) ([1]; replicate 1): 14.1088 | 2^-(deltaCq) GFP (340+341) ([1]; replicate 2): 5.698e-5 | Cq GFP (340+341) ([1]; replicate 2): 32.8514 | Cq(sample) - avg Cq(GAPDH), GFP (340+341) ([1]; replicate 2): 14.0993 | 2^-(deltaCq) GFP (340+341) ([1]; replicate 3): 5.761e-5 | Cq GFP (340+341) ([1]; replicate 3): 32.8353 | Cq(sample) - avg Cq(GAPDH), GFP (340+341) ([1]; replicate 3): 14.0832 | average fold change relative to empty ([2]; HCT116, rep 1, no siRNA named, average of 4 dilutions): 1.771 fold change | fold change relative to empty ([2]; input, dilution 0.01, rep1): 1.802 | fold change relative to empty ([2]; input, dilution 0.01, rep2): 2.141 | fold change relative to empty ([2]; input, dilution 0.01, rep3): 1.451 | fold change relative to empty ([2]; input, dilution 0.02, rep1): 2.44 | fold change relative to empty ([2]; input, dilution 0.02, rep2): 1.968 | fold change relative to empty ([2]; input, dilution 0.02, rep3): 1.816 | avg fold change ([2]; input, dilution 0.02, second listing, relative to avg. empty, average of rep1-rep3): 2.105 | fold change relative to empty ([2]; input, dilution 0.02, second listing, rep2): 1.992 | fold change relative to empty ([2]; input, dilution 0.02, second listing, rep3): 1.959 | AnnexinV+ (Statistic) [3, 9]: 18.2 | AnnexinV- (Statistic) [3, 9]: 81.8 | Difference between means ([3]; empty w Tg vs. empty): 28 ± 7.5 | Mean ± SEM (Prism T-tests, Annexin V for MPZ-GFP) ([3]; no siDR5, mean ± SEM, N=3, values agree with avg Annexin V+): 35 ± 6.7 N=3 | Annexin V+ [3, 10]: 48.1 | Annexin V- [3, 10]: 51.9 | AnnexinV+ (Statistic, single cells) ([3]; siRNA scrambled, 2018-01-17 MPZ, gate all cells/Single Cells/AnnexinV+, Tg sample with empty construct): 48.1 | AnnexinV- (Statistic, single cells) ([3]; siRNA scrambled, 2018-01-17 MPZ, gate all cells/Single Cells/AnnexinV-, Tg sample with empty construct): 51.9 | GFP+ (Statistic, single cells) ([3]; siRNA scrambled, 2018-01-17 MPZ, gate all cells/Single Cells/GFP+, Tg sample with empty construct): 0.011 | GFP- (Statistic, single cells) ([3]; siRNA scrambled, 2018-01-17 MPZ, gate all cells/Single Cells/GFP-, Tg sample with empty construct): 100 | Q1: APC-A- , DAPI-A+ (Statistic, single cells) ([3]; siRNA scrambled, 2018-01-17 MPZ, gate all cells/Single Cells/Q1, Tg sample with empty construct): 10.8 | Q2: APC-A+ , DAPI-A+ (Statistic, single cells) ([3]; siRNA scrambled, 2018-01-17 MPZ, gate all cells/Single Cells/Q2, Tg sample with empty construct): 31.2 | Q3: APC-A+ , DAPI-A- (Statistic, single cells) ([3]; siRNA scrambled, 2018-01-17 MPZ, gate all cells/Single Cells/Q3, Tg sample with empty construct): 13.1 | Q4: APC-A- , DAPI-A- (Statistic, single cells) ([3]; siRNA scrambled, 2018-01-17 MPZ, gate all cells/Single Cells/Q4, Tg sample with empty construct): 45 | SytoxBlue+ (Statistic, single cells) ([3]; siRNA scrambled, 2018-01-17 MPZ, gate all cells/Single Cells/SytoxBlue+, Tg sample with empty construct): 40.3 | SytoxBlue- (Statistic, single cells) ([3]; siRNA scrambled, 2018-01-17 MPZ, gate all cells/Single Cells/SytoxBlue-, Tg sample with empty construct): 59.7 | dead cells (Statistic) ([3]; siRNA scrambled, 2018-01-17 MPZ, gate dead cells of all events, Tg sample with empty construct): 26.5 | FITC-A+ (Statistic, dead cells) ([3]; siRNA scrambled, 2018-01-17 MPZ, gate dead cells/Single Cells/FITC-A+, Tg sample with empty construct): 0.016 | FITC-A- (Statistic, dead cells) ([3]; siRNA scrambled, 2018-01-17 MPZ, gate dead cells/Single Cells/FITC-A-, Tg sample with empty construct): 100 | Annexin V+ [3, 11]: 32.2 | Annexin V- [3, 11]: 67.8 | Annexin V+ [3, 12]: 25.7 | Annexin V- [3, 12]: 74.3 | avg Annexin V+ [3, 13]: 35.3333 | avg Annexin V- [3, 13]: 64.6667 | Cq GAPDH ([4]; mean of 3 replicates): 18.752 | avg. fold induction GAPDH [4, 5]: 1.009 | fold induction GAPDH [4, 6]: 0.7989 | fold induction GAPDH [4, 7]: 1.157 | fold induction GAPDH [4, 8]: 1.071 | 2^-(deltaCq) GAPDH ([4]; replicate 1): 0.8014 | Cq GAPDH ([4]; replicate 1): 19.0714 | Cq(sample) - avg Cq(GAPDH), GAPDH ([4]; replicate 1): 0.3194 | 2^-(deltaCq) GAPDH ([4]; replicate 2): 1.161 | Cq GAPDH ([4]; replicate 2): 18.5367 | Cq(sample) - avg Cq(GAPDH), GAPDH ([4]; replicate 2): -0.2154 | 2^-(deltaCq) GAPDH ([4]; replicate 3): 1.075 | Cq GAPDH ([4]; replicate 3): 18.648 | Cq(sample) - avg Cq(GAPDH), GAPDH ([4]; replicate 3): -0.104

FTWRYQPEGGRDAISIFHYA [MPZ-ecto peptide-eGFP, expressed construct: MPZ ectodomain replaced by the MPZ-ecto peptide, GFP-tagged]
Caspase 8 activity, fold change relative to GFP ([2]; Rep 1, HCT116, ecto 400 ng, YYEE and Arom-to-E 200 ng): 2.6 | Caspase 8 activity, fold change relative to GFP ([2]; Rep 2, HCT116, ecto 400 ng, YYEE and Arom-to-E 200 ng): 2.183 | AVG fold change relative to GFP ([2]; Rep 2, HCT116): 2.183 fold | Caspase 8 activity, fold change relative to GFP ([2]; Rep 3, HCT116, ecto 400 ng, YYEE and Arom-to-E 200 ng): 2.309 | AVG fold change relative to GFP ([2]; Rep 3, HCT116): 2.309 fold | Caspase 8 activity, fold change relative to GFP, avg of biological replicates ([2]; avg of n = 3 biol rep, HCT116, ecto 400 ng, YYEE and Arom-to-E 200 ng, SEM of n = 3 in own column): 2.364 | annexin V staining ([3]; HCT116, 24 hr, relative to empty vector or WT): increased annexin V staining relative to the empty vector | Annexin V +, Sytox Blue + cells ([3]; + z-VAD): 8.37% of cells | Annexin V +, Sytox Blue - cells ([3]; + z-VAD (20 μm [sic])): 3.77% of cells | Annexin V -, Sytox Blue - cells ([3]; + z-VAD (20 μm [sic])): 86.3% of cells | Annexin V +, Sytox Blue + cells ([3]; no z-VAD): 19.1% of cells | Annexin V +, Sytox Blue - cells ([3]; no z-VAD): 11.5% of cells | Annexin V -, Sytox Blue - cells ([3]; no z-VAD): 65.3% of cells
